# According to ChEMBL document CHEMBL1136735, “Design and synthesis of naphthalenic dimers as selective MT1 melatoninergic ligands” (J Med Chem, 2003):
# Activity calls are given as the source filed them. No cut-off for these calls is given here.
# What was measured:
# [1] = molecular target: T1, Melatonin receptor type 1B (Homo sapiens, UniProt P49286); assay: Binding affinity for human Melatonin receptor type 1B stably transfected in human embryonic kidney cells (HEK 293) using 2-[125I]iodomelatonin as radioligand; type: cell-based, HEK293
# T1 sequence (P49286 whole entry): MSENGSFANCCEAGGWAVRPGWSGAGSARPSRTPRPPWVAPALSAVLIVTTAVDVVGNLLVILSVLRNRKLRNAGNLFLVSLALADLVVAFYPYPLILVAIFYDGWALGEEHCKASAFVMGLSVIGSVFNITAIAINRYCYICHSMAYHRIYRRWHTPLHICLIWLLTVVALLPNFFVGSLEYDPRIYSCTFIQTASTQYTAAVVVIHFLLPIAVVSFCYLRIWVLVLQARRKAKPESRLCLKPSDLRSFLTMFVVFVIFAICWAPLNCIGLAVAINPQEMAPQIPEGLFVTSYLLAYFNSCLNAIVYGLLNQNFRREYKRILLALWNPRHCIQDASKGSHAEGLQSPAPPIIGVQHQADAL
# [2] = molecular target: T2, Melatonin receptor type 1A (Homo sapiens, UniProt P48039); assay: Binding affinity for human Melatonin receptor type 1A stably transfected in human embryonic kidney cells (HEK 293) using 2-[125I]iodomelatonin as radioligand; type: cell-based, HEK293
# T2 sequence (P48039 whole entry): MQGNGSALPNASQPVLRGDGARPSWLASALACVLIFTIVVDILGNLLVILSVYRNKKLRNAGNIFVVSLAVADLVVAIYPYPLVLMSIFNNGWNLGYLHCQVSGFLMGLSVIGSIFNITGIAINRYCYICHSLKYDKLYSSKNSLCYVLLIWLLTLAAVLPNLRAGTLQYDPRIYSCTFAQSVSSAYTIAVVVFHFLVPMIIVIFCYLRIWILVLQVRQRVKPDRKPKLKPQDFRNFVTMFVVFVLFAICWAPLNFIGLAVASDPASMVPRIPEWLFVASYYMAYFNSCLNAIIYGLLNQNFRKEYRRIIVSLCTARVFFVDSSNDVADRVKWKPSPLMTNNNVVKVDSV
# [3] = molecular target: T2, Melatonin receptor type 1A; details: CHO
# [4] = molecular target: T3, Melatonin receptor type 1B (Homo sapiens) (UniProt P49286); details: CHO
# T3 sequence (whole entry): T1 sequence (P49286 whole entry)
SMILES,Ki [1] [nM],Ki [2] [nM],IA [3],IA [4]
CC(=O)NCCc1cccc2ccc(OCCCCCCOc3ccc4cccc(CCNC(C)=O)c4c3)cc12,2.33,0.08,–,–
CC(=O)NCCc1cccc2ccc(OCCCOc3ccc4cccc(CCNC(C)=O)c4c3)cc12,112,0.5,inactive,inactive
CC(=O)NCCc1cccc2ccc(OCCCCOc3ccc4cccc(CCNC(C)=O)c4c3)cc12,72.7,0.6,–,–
CC(=O)NCCc1cccc2ccc(OCCCCCOc3ccc4cccc(CCNC(C)=O)c4c3)cc12,1.74,0.05,–,–
CC(=O)NCCc1cccc2ccc(OCCCCCCCCCCOc3ccc4cccc(CCNC(C)=O)c4c3)cc12,0.04,0.03,–,–
CC(=O)NCCc1cccc2ccc(OCCCCCCCCOc3ccc4cccc(CCNC(C)=O)c4c3)cc12,0.18,0.05,–,–
CC(=O)NCCc1cccc2ccc(OCCOc3ccc4cccc(CCNC(C)=O)c4c3)cc12,182,2.05,–,–
